Read-outs that look alike come from different tables or passages of the source. Blank lines part the entries; values can stand above or below the molecule they belong to.
What was measured:
Format in all cases: cell-based
[1] = system: Renilla; test: Renilla signal in NR2F6 agonist screening, cmpd/DMSO; details: for fold induction at 10 µM / fold induction at 0.5 µM / fold induction at 2 µM / fold induction at 40 µM: Renilla
[2] = target: T1, ERα (Homo sapiens, UniProt P03372); test: Counterscreening, Firefly signal with ERα transient transfection (Firefly_ERa); details: ERα transient transfection, 10 μM
T1 construct: expressed in transfected cells
T1 sequence (P03372 1-595): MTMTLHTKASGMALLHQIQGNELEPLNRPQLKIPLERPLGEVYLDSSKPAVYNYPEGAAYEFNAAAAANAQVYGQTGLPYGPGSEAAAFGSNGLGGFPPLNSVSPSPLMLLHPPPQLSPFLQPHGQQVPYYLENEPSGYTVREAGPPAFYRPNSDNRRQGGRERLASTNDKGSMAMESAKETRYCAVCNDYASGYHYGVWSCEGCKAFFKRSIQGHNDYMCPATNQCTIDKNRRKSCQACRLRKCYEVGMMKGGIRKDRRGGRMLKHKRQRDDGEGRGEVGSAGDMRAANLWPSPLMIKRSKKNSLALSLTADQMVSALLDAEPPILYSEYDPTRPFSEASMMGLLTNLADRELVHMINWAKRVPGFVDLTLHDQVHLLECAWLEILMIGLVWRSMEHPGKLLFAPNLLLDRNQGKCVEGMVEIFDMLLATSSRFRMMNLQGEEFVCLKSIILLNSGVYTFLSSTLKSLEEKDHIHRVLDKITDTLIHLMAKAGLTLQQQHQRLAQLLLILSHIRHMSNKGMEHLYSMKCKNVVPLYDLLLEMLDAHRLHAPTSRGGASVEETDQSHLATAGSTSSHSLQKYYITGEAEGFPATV
Protocol: The methodology for screening candidate compounds as NR2F6 agonists was as follows: For primary screening, hit criteria was ACT %>DMSO control+5*SD (DSO control) at 10 μM, or any compound with S/B>2. For rescreening, hit criteria was ACT %>DMSO control+3*SD (DSO control) in each replicate at 10 μM. For counterscreening, hit criteria was mean ACT<DMSO control+3*SD (DMSO control) with ERα transient transfection in duplicate at 10 μM.

[3] = target: T2, NR2F6 (Homo sapiens, UniProt P10588); test: NR2F6 agonist screening, Firefly signal cmpd/DMSO; details: for Firefly, cmpd/DMSO repeat 1 / Firefly, cmpd/DMSO repeat 2: first set screening, 10 μM
T2 construct: expressed in transfected cells; also transient transfection
T2 sequence (P10588 1-404): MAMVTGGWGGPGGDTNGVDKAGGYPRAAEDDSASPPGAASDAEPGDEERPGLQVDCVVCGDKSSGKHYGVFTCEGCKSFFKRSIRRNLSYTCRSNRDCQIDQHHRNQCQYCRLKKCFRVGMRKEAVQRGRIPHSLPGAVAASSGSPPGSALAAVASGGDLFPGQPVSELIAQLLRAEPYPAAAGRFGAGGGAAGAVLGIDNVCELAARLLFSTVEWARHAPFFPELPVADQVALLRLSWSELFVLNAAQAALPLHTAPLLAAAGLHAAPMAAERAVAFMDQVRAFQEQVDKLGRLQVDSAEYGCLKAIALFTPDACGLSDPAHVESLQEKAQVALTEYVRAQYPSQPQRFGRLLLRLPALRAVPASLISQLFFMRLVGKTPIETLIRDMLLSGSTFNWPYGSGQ

[4] = system: Renilla_ERa; test: Renilla signal in ERα counterscreen (Renilla_ERa); details: ERα transient transfection, 10 μM
[5] = target: T3, NR2F6 LBD (Homo sapiens, UniProt P10588); test: NR2F6 LBD transient transfection; details: LBD
T3 construct: expressed in transfected cells
T3 sequence (P10588 165-393 limits assumed): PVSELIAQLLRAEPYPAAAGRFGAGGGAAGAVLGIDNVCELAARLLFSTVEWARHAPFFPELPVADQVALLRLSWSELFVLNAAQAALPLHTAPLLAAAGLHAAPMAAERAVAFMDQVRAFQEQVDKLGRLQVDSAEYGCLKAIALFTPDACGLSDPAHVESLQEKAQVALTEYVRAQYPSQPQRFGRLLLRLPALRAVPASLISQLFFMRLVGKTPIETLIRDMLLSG
Procedure, shortened: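 LBD-transfected cells treated at 40, 10, 2 and 0.5 μM (4 replicates); cytotoxicity measured in parallel, normalized to DMSO (0%) and zero signal (100%). Higher concentrations excluded where signal loss reflected toxicity.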

[6] = system: HEK293 pGL4; test: Firefly_pGL signal, cmpd/DMSO (pGL4 control cells); details: Homo sapiens
[7] = first set screening, 10 μM, repeat 1, read-out: Renilla, cmpd/DMSO repeat 1
[8] = first set screening, 10 μM, repeat 2, read-out: Renilla, cmpd/DMSO repeat 2
[9] = repeat 1, read-out: Renilla_ERa, cmpd/DMSO repeat 1
[10] = repeat 2, read-out: Renilla_ERa, cmpd/DMSO repeat 2
[11] = F4, read-out: Renilla, F4, cmpd/DMSO (mean)
[12] = F4, 1% FBS, read-out: Renilla, F4, 1% FBS, cmpd/DMSO (mean)
[13] = F4, 10% FBS, read-out: Renilla, F4, 10% FBS, cmpd/DMSO (mean)

Structure (SMILES): COc1ccc(-c2cc(C(F)(F)F)nc(S(=O)(=O)CCCC(=O)Nc3sc4c(c3C(N)=O)CCCC4)n2)cc1OC [Compound C2]
fold induction at 10 µM [1, 7]: 6 | fold induction at 10 µM [1, 8]: 5.3 | Firefly_ERa, cmpd/DMSO repeat 1 [2]: 1.0 | Firefly_ERa, cmpd/DMSO repeat 2 [2]: 0.8 | Firefly, cmpd/DMSO repeat 1 [3]: 2.7 | Firefly, cmpd/DMSO repeat 2 [3]: 2.2 | fold induction at 10 µM [4, 9]: 1.7 | fold induction at 10 µM [4, 10]: 1.6

Structure (SMILES): O=C(Nc1ccc(Cl)cn1)c1ccc(I)cc1 [Compound 18]
fold induction at 10 µM [1, 7]: 3.3 | fold induction at 10 µM [1, 8]: 4.2 | Firefly_ERa, cmpd/DMSO repeat 1 [2]: 2.5 | Firefly_ERa, cmpd/DMSO repeat 2 [2]: 1.9 | Firefly, cmpd/DMSO repeat 1 [3]: 3.8 | Firefly, cmpd/DMSO repeat 2 [3]: 3.8 | fold induction at 10 µM [4, 9]: 0.8 | fold induction at 10 µM [4, 10]: 0.9

Structure (SMILES): CNC(=O)c1ccc2c(c1)N=C(C)c1cc(C)ccc1S2 [Compound C9]
fold induction at 10 µM [1, 7]: 2.4 | fold induction at 10 µM [1, 8]: 2.5 | Firefly_ERa, cmpd/DMSO repeat 1 [2]: 2.5 | Firefly_ERa, cmpd/DMSO repeat 2 [2]: 2.4 | Firefly, cmpd/DMSO repeat 1 [3]: 2.7 | Firefly, cmpd/DMSO repeat 2 [3]: 1.9 | fold induction at 10 µM [4, 9]: 0.9 | fold induction at 10 µM [4, 10]: 1

Second part, led by results:

Firefly_ERa, cmpd/DMSO repeat 1 [2]: 1.1 | Firefly_ERa, cmpd/DMSO repeat 2 [2]: 1.0 | Firefly, cmpd/DMSO repeat 1 [3]: 2.4 | Firefly, cmpd/DMSO repeat 2 [3]: 2.2
Structure (SMILES): CCn1c2c(c(=O)[nH]c1=O)C(c1ccc(C(C)C)cc1)C1=C(N2)c2ccccc2C1=O (stereo not shown) [Compound 21]
Renilla, cmpd/DMSO repeat 1 ([1]; first set screening, 10 μM, repeat 1): 3.8 | Renilla, cmpd/DMSO repeat 2 ([1]; first set screening, 10 μM, repeat 2): 3.0 | Renilla_ERa, cmpd/DMSO repeat 1 ([4]; repeat 1): 1.1 | Renilla_ERa, cmpd/DMSO repeat 2 ([4]; repeat 2): 0.9

Firefly LBD, cmpd/DMSO (mean) ([5]; 0.5 uM): 1.1 | Firefly LBD, cmpd/DMSO (mean) ([5]; 2 uM): 2.1 | Firefly LBD, cmpd/DMSO (mean) ([5]; 10 uM): 4.2 | Firefly LBD, cmpd/DMSO (mean) ([5]; 40 uM): 0.2 | Firefly F4, cmpd/DMSO (mean) ([3]; 0.5 uM): 1.1 | Firefly F4, cmpd/DMSO (mean) ([3]; 2 uM): 2.2 | Firefly F4, cmpd/DMSO (mean) ([3]; 10 uM): 4.7 | Firefly F4, cmpd/DMSO (mean) ([3]; 40 uM): 0.5 | F4, Firefly/Renilla for S/B(F4) > 3 ([3]; 1% FBS, 10 uM): 3.4 | Firefly, F4/pGL4 for S/B(F4) > 3 ([3]; 1% FBS, 10 uM): 3.2 | F4, Firefly/Renilla for S/B(F4) > 3 ([3]; 10% FBS, 10 uM): 2.3 | Firefly, F4/pGL4 for S/B(F4) > 3 ([3]; 10% FBS, 10 uM): 1.9 | Firefly, F4, 1% FBS, cmpd/DMSO (mean) ([3]; 1% FBS, 0.5 uM): 0.9 | Firefly, F4, 1% FBS, cmpd/DMSO (mean) ([3]; 1% FBS, 2 uM): 2.1 | Firefly, F4, 1% FBS, cmpd/DMSO (mean) ([3]; 1% FBS, 10 uM): 5.9 | Firefly, F4, 1% FBS, cmpd/DMSO (mean) ([3]; 1% FBS, 40 uM): 0.1 | Firefly, F4, 10% FBS, cmpd/DMSO (mean) ([3]; 10% FBS, 0.5 uM): 0.9 | Firefly, F4, 10% FBS, cmpd/DMSO (mean) ([3]; 10% FBS, 2 uM): 1.2 | Firefly, F4, 10% FBS, cmpd/DMSO (mean) ([3]; 10% FBS, 10 uM): 4.1 | Firefly, F4, 10% FBS, cmpd/DMSO (mean) ([3]; 10% FBS, 40 uM): 2.9
Structure (SMILES): CCCN[C@H]1CS(=O)(=O)C[C@@H]1S(=O)(=O)c1ccc(Cl)cc1 [Compound D117]
fold induction at 0.5 µM ([6]; HEK293, 0.5 uM, pGL4, read-out: Firefly pGL4, cmpd/DMSO (mean)): 1 | fold induction at 2 µM ([6]; HEK293, 2 uM, pGL4, read-out: Firefly pGL4, cmpd/DMSO (mean)): 1.4 | fold induction at 10 µM ([6]; HEK293, 10 uM, pGL4, read-out: Firefly pGL4, cmpd/DMSO (mean)): 4.6 | fold induction at 40 µM ([6]; HEK293, 40 uM, pGL4, read-out: Firefly pGL4, cmpd/DMSO (mean)): 0.3 | fold induction at 0.5 µM ([6]; HEK293, pGL4, 1% FBS, 0.5 uM, read-out: Firefly, pGL4, 1% FBS, cmpd/DMSO (mean)): 1 | fold induction at 2 µM ([6]; HEK293, pGL4, 1% FBS, 2 uM, read-out: Firefly, pGL4, 1% FBS, cmpd/DMSO (mean)): 1.4 | fold induction at 10 µM ([6]; HEK293, pGL4, 1% FBS, 10 uM, read-out: Firefly, pGL4, 1% FBS, cmpd/DMSO (mean)): 1.9 | fold induction at 40 µM ([6]; HEK293, pGL4, 1% FBS, 40 uM, read-out: Firefly, pGL4, 1% FBS, cmpd/DMSO (mean)): 0.6 | fold induction at 0.5 µM ([6]; HEK293, pGL4, 10% FBS, 0.5 uM, read-out: Firefly, pGL4, 10% FBS, cmpd/DMSO (mean)): 1.1 | fold induction at 2 µM ([6]; HEK293, pGL4, 10% FBS, 2 uM, read-out: Firefly, pGL4, 10% FBS, cmpd/DMSO (mean)): 1.6 | fold induction at 10 µM ([6]; HEK293, pGL4, 10% FBS, 10 uM, read-out: Firefly, pGL4, 10% FBS, cmpd/DMSO (mean)): 2.2 | fold induction at 40 µM ([6]; HEK293, pGL4, 10% FBS, 40 uM, read-out: Firefly, pGL4, 10% FBS, cmpd/DMSO (mean)): 1.2 | fold induction at 0.5 µM [1, 11]: 1 | fold induction at 2 µM [1, 11]: 1.3 | fold induction at 10 µM ([1]; F4, 10 uM, read-out: Renilla, F4, cmpd/DMSO (mean)): 1.7 | fold induction at 40 µM [1, 11]: 0.4 | fold induction at 0.5 µM [1, 12]: 1 | fold induction at 2 µM [1, 12]: 1.4 | fold induction at 10 µM ([1]; F4, 1% FBS, 10 uM, read-out: Renilla, F4, 1% FBS, cmpd/DMSO (mean)): 1.7 | fold induction at 40 µM [1, 12]: 0.8 | fold induction at 0.5 µM [1, 13]: 1 | fold induction at 2 µM [1, 13]: 1 | fold induction at 10 µM ([1]; F4, 10% FBS, 10 uM, read-out: Renilla, F4, 10% FBS, cmpd/DMSO (mean)): 1.8 | fold induction at 40 µM [1, 13]: 2.4

— patent US11377442B2, “Small molecule agonists and antagonists of NR2F6 activity” (ZANDER THERAPEUTICS, INC., priority 2016, dated 2022)
